{"source": "paper PMC5025780", "about": "“Copper(II) ions affect the gating dynamics of the 20S proteasome: a molecular and in cell study” (Scientific Reports, 2016)", "type_in_all_cases": "biochemical", "key": {"[1]": {"molecular_target": "T1, human 20S proteasome (hCP), ChT-L activity", "T1 construct": "purchased Boston Biochem (Cambridge, MA, USA)", "test": "ChT-L peptidase activity of isolated hCP (Suc-LLVY-AMC fluorogenic substrate)", "details": "hCP 2 nM, 1 h preincubation with ions, Tris 25 mM pH 7.6, 37 °C, no SDS; read-out: IC50 ChT-L", "source_text": "(§1) Purified human 20S proteasome (hCP) and the fluorogenic substrates Suc-LLVY-AMC, Z-Leu-Leu-Glu-AMC, and Ac-Arg-Leu-Arg-AMC used to assay the ChT-L, T-L, and C-L activity, were from Boston Biochem (Cambridge, MA, USA). Bathocuproinedisulfonic acid disodium salt (BCS), dithiothreitol (DTT), N-Acetyl-L-Cysteine (NAC), Sodium dodecylsulphate (SDS) as well as CuCl2 and Zn(NO3)2 were from Sigma-Aldrich (St. Louis, MO). Proteasome inhibitors Epoxomicin were obtained from Enzo Life Science. Wild type 20S proteasome isolated from Saccharomices Cerevisiae (yCP) and a mutant (α3ΔN) where nine residues of the N-terminal tail of the α3 subunit are deleted to provide a permanently open-gate conformations were isolated as described elsewhere.\n(§2) Peptidase activities of hCP (2 nM) were assayed on in 50 μL Tris 25 mM pH 7.6, at 37 °C with 100 μM of the fluorogenic substrate. hCP was incubated with Cu(II)/Zn(II) ions for 1 h prior activity assays. The fluorescence signal activated by peptide cleavage was recorded at 440 nm (excitation at 360 nm) for 45 min, by a Varioskan (Thermo^©) plate reader in 384 multiwell plates. Three replicates were performed for each data point. Data were reported as normalized percentages of residual activity. The potency (IC50) was calculated from the value of the dose response plot corresponding at a fractional activity of 50%. The IC50 values were determined using a non linear fit of experimental data in according to equation: […]\n(§3) The midpoint of this function occurs at a fractional activity value of 50%, corresponding to half inhibition of the target enzyme. The IC50 values and their standard errors were deduced from the fitting. To evaluate if copper is a reversible PI, we measured the ChT-L activity of hCP incubated with Cu(II) (2.20 μM) before and after addition of an equimolar amount of EDTA."}, "[2]": {"molecular_target": "T2, human 20S proteasome (hCP), T-L activity", "T2 construct": "purchased Boston Biochem (Cambridge, MA, USA)", "test": "T-L peptidase activity of isolated hCP (fluorogenic substrate)", "details": "hCP 2 nM, 1 h preincubation with ions, Tris 25 mM pH 7.6, 37 °C, no SDS; read-out: IC50 T-L", "source_text": "as §1, §2, §3"}, "[3]": {"molecular_target": "T3, human 20S proteasome (hCP), C-L activity", "T3 construct": "purchased Boston Biochem (Cambridge, MA, USA)", "test": "C-L peptidase activity of isolated hCP (fluorogenic substrate)", "details": "hCP 2 nM, 1 h preincubation with ions, Tris 25 mM pH 7.6, 37 °C, no SDS; read-out: IC50 C-L", "source_text": "as §1, §2, §3"}, "[4]": {"molecular_target": "T4, human 20S proteasome (hCP)", "T4 construct": "purchased Boston Biochem (Cambridge, MA, USA)", "test": "Peptidase activities of isolated hCP, all three (ChT-L, T-L, C-L)", "details": "T-L and C-L of hCP, no SDS, read-out: IC50 values, range over the three peptidase activities", "source_text": "as §1\nas §2, with “The potency (IC50) was calculated from the value of the dose response plot corresponding at a fractional activity of 50%.” left out"}}, "data": [{"smiles": "O=[N+]([O-])[O-].O=[N+]([O-])[O-].[Zn+2]", "note": "[Zn(II), Zn(NO3)2, reference compound]", "values": [{"measurement": "IC50", "setting": "[1]", "result": 5.99, "unit": "µM"}, {"measurement": "IC50", "setting": "[2]", "result": 4.16, "unit": "µM"}, {"measurement": "IC50", "setting": "[3]", "result": 5.84, "unit": "µM"}, {"measurement": "IC50", "setting": "[4]", "result": "4.16 to 5.99", "unit": "µM"}]}]}
